One may read the Aqueous solubility as the concentration that dissolves in the medium under given conditions.

The values below come from patent publication US8530501B2, “Salts and crystalline forms of a factor Xa inhibitor” (Millennium Pharmaceuticals, Inc., priority 2009, dated 2013).

Data set [1] is described as follows: Stability on storage at 40° C./75% RH (XRPD, HPLC purity). It counts as physicochemical. As to conditions: 6 months of storage at 40° C./75% RH. The source says:
[…] No significant thermal events were seen before degradation began for both the phosphate salt and the 1-hydroxy-2-naphthoate salts.

The nature of data set [2]: Pharmacokinetics in rat after IV and PO administration. As to conditions: mean ± SD. It counts as in vivo, male Sprague-Dawley rats. On the procedure:
Compound I was used in the rat investigation. An intravenous (IV) and oral (PO) dose of Compound I (1.0 and 10 mg/kg, respectively) was prepared. The IV dose was solubilized in 50% PEG300 to yield a final concentration of 1.0 mg/mL with a final pH of 5.13. The PO dose was suspended in 0.5% methylcellulose at a concentration of 2.0 mg/mL with a final pH of 2.70.
(§1) A total of six male Sprague-Dawley rats (n=3/dosing group) from Charles River Laboratories (Hollister, Calif.), three male beagle dogs from Marshall BioResources (North Rose, N.Y.) and three male rhesus monkeys were utilized. […]
(§2) All animals were dosed based on individual weights with a PO gavage volume of 5.0 mL/kg and an IV bolus dose volume of 1.0 mL/kg. […] At collection times, urine volume and water consumption was recorded. […]
(§3) Plasma and urine samples were analyzed for Compound I concentration using a liquid chromatography tandem mass spectrometry (LC/MS/MS). […] The peak areas of the m/z 411→250 product ion (Compound I) were measured against those of the m/z 470→342 product ion (N-(2-(5-chloropyridin-2-ylcarbaomoyl)-4-methoxyphenyl)-4-(N,N-dimethylcarbamimidoyl)-2-fluorobenzamide) in positive ion mode. […]
(§4) Sample Compound I concentrations below the lower limit of quantitation (LLQ) were reported as <0.500 ng/mL. […]

Data set [3] in a line: Thermodynamic aqueous solubility by HPLC (filtration method). As to conditions: Table 8, listed as Free base. It counts as physicochemical. On the procedure: The aqueous thermodynamic solubility of selected salt forms was measured using the filtration method as described in Example 10.
The suspension was equilibrated at 25° C. for 24 hours then the pH was measured. The suspension was then filtered through a glass fiber C filter into a 96 well plate. The filtrate was then diluted by a factor of 101. Quantitation was by HPLC with reference to a standard solution of approximately 0.1 mg/mL in DMSO. Different volumes of the standard, diluted and undiluted sample solutions were injected. The solubility was calculated using the peak areas determined by integration of the peak found at the same retention time as the principal peak in the standard injection.

Data set [4] in a line: Pharmacokinetics in dog after IV and PO administration. The settings on record: PO 5 mg/kg, dose-normalized AUC(0-inf), mean ± SD. In kind it is in vivo, male beagle dogs. On the procedure: (§5) For the dog and monkey study, Compound I was also used. An IV and PO dose of Compound I (1.0 and 5.0 mg/kg, respectively) was prepared. The IV dose was formulated similarly to that used in the rat study (50% PEG300 in water). The PO dose was suspended in 0.5% methylcellulose at a concentration of 1.0 mg/mL with a final pH of approximately 3.50.
as §1, §2, §3, §4

A short description of data set [5]: Pharmacokinetics in monkey after IV and PO administration. In kind it is in vivo, male rhesus monkeys. As to conditions: PO 5 mg/kg, dose-normalized AUC(0-inf), mean ± SD. On the procedure:
as §5, §1, §2, §3, §4

Take `O=C(NCc1cn(-c2ccc(-n3ccccc3=O)cc2)cn1)c1ccc(Cl)s1` [Compound I, 5-chloro-N-((1-(4-(2-oxopyridin-1(2H)-yl)phenyl)-1H-imidazol-4-yl)methyl)thiophene-2-carboxamide]: in data set [1], the physical stability entry was “physically stable”. For the same compound, the “Dose excreted unchanged in urine” value in data set [2] (IV 1 mg/kg) is recorded as 0.248 ± 0.019%. For the same compound, the AUC/D in data set [2] (PO 10 mg/kg, dose-normalized AUC(0-inf)) came out at 6859 ± 1249 kg·h/mL; in data set [4] it was 1095 ± 295 kg·h/mL; in data set [5], 8430 ± 3449 kg·h/mL. In addition, the “Aqueous solubility” value in data set [3] (filtration method, water, 25° C., 24 hours) was 800 ng/mL. This compound also gave a pH in data set [3] (pH of the solubility suspension) of 7.8.
